The values below come from patent publication US20180305334A1, “COMPOUNDS, COMPOSITIONS AND METHODS OF USE AGAINST STRESS GRANULES” (Aquinnah Pharmaceuticals, Inc., priority 2015, published 2018).

The first assay relates to TDP-43 aggregation in PC12 cells stably expressing TDP-43^Q331K::eGFP. The assay is described as follows: In vitro efficacy assay, TDP-43 aggregation concentration-response. Type of assay: cell-based. Conditions: Rattus norvegicus, PC-12, inhibition of TDP-43 aggregation; PC12 TDP-43^Q331K::eGFP, 1 hour pre-treatment, 15 μM sodium arsenite for 23 hours; 10-point dose response. The protocol: Exemplary compounds of the invention were evaluated for efficacy in inhibiting TDP-43 inclusions using a concentration-response assay. Briefly, PC12 cells stably expressing a GFP-tagged mutant form of TDP-43 (TDP-43^Q331K::eGFP) were pre-treated for 1 hour with exemplary compounds and stressed with 15 μM sodium arsenite for 23 hours to induce TDP-43 aggregation. The inhibitory effect on TDP-43 aggregation was measured using fluorescence microscopy. The ratio of cells with TDP-43 aggregates was calculated based on the total number of cells with detectable GFP expression.
On to `CCN(CC1CCCN(CCc2ccccc2F)C1)C(=O)c1cc2ccccc2[nH]1` (stereo not drawn) [Compound 123], for which the IC50 (usually the midpoint of a concentration-inhibition curve) lay in the range of 1.5 to 4 µM.
With `O=C(NCC1CCN(Cc2cccc(F)c2)CC1)c1cc2ccccc2[nH]1` [compound 270], the IC50 was above 10 µM.
As for `CCN(CC1CCCN(C2CCc3ccc(OC)cc3C2)C1)C(=O)c1cc2ccccc2[nH]1` (stereo not drawn) [Compound 210], the IC50 was above 10 µM.
On the same count and under the same terms, as for `CCN(CC1CCN(Cc2ccc(OC)cc2)CC1)C(=O)c1cc2ccccc2[nH]1` [compound 288], the figure is below 1.5 µM; as for `CCN(CC1CCN(CCc2cccc(OC)c2)CC1)C(=O)c1cc2ccccc2[nH]1` [compound 253], 1.5 to 4 µM.
On the same count and under the same terms, as for `CCN(CC1CCCN(Cc2ccc(OC)cc2)C1)C(=O)c1cc2cc(F)c(F)cc2[nH]1` (stereo not drawn) [Compound 171], the figure is below 1.5 µM; as for `CCN(CC1CCCN(Cc2cccc(F)c2)C1)C(=O)c1cc2ccccc2[nH]1` (stereo not drawn) [Compound 131], above 10 µM.
For `CCN(CC1CCCN(CCc2cccc(OC)c2)C1)C(=O)c1ccc(C)[nH]1` (stereo not drawn) [Compound 246], the IC50 lay within 1.5 to 4 µM.
The same measure, in the same setting: as for `COc1cccc(CC(C)(C)N2CCC(CN(CC(F)(F)F)C(=O)c3cc4ccccc4[nH]3)CC2)c1` [Compound 350], the figure is below 1.5 µM.
The same measure, in the same setting: as for `CCN(CC1CCCN(CCc2cccc(OC)c2)C1)C(=O)c1c[nH]c2ccccc12` (stereo not drawn) [Compound 232], the figure is below 1.5 µM; as for `COc1ccccc1CN1CCC(CN(C)C(=O)c2cc3ccccc3[nH]2)CC1` [compound 260], 4 to 7 µM; as for `COc1ccc(S(=O)(=O)N2CCC(CNC(=O)c3cc4ccccc4[nH]3)CC2)cc1` [Compound 325], above 10 µM.
In the case of `COc1cccc(CCN2CCCC(N(C)C(=O)c3cc4ccccc4[nH]3)C2)c1` (stereo not drawn) [Compound 222], the IC50 is above 10 µM.
The same measure, in the same setting: as for `CCN(CC1CCN(Cc2cccc(Cl)c2)CC1)C(=O)c1cc2ccccc2[nH]1` [compound 266], the figure is 4 to 7 µM.
Still for that read-out and setting: as for `CCN(CC1CCN(Cc2cccc(OC(F)(F)F)c2)CC1)C(=O)c1cc2cc(OC(F)(F)F)ccc2[nH]1` [compound 308], the figure is above 10 µM; as for `CCN(CC1CCCN(Cc2ccc(Cl)cc2)C1)C(=O)c1cc2ccc(Cl)cc2[nH]1` (stereo not drawn) [Compound 164], 1.5 to 4 µM.
Regarding `CCN(CC1CCCN(CC(C)(C)c2cccc(OC)c2)C1)C(=O)c1cc2cc(OC)ccc2[nH]1` (stereo not drawn) [Compound 406], the IC50 is below 1.5 µM.
The same measure, in the same setting: the same measure for `CCN(CC1CCCNC1)C(=O)c1cc2cc(F)ccc2[nH]1` (stereo not drawn) [compound 414]: above 10 µM; for `CCN(CC1CCCN(Cc2ccc(C(=O)O)cc2)C1)C(=O)c1cc2ccccc2[nH]1` (stereo not drawn) [Compound 213]: above 10 µM; for `CCN(CC1CCN(CCc2cccc(OC)c2)C1)C(=O)c1cc2ccccc2[nH]1` (stereo not drawn) [Compound 223]: 1.5 to 4 µM.
Still for that read-out and setting: the same measure for `CCN(CC1CCCNC1)C(=O)c1cc2cccc(F)c2[nH]1` (stereo not drawn) [compound 418]: above 10 µM; for `CCN(CC1CCCN(Cc2ccc(Cl)cc2)C1)C(=O)c1cc2ccc(C)cc2[nH]1` (stereo not drawn) [Compound 155]: 1.5 to 4 µM; for `CCN(CC1CCCN(Cc2ccc(OC)cc2)C1)C(=O)c1cc2cc(Cl)ccc2[nH]1` (stereo not drawn) [Compound 161]: below 1.5 µM.
Still for that read-out and setting: as for `CCN(CC1CCN(C(C)(C)Cc2ccccc2F)CC1)C(=O)c1cc2ccccc2[nH]1` [Compound 343], the figure is 1.5 to 4 µM; as for `CCN(CC1CCN(CC(F)(F)c2cccc(OC)c2)CC1)C(=O)c1cc2ccccc2[nH]1` [Compound 412], 1.5 to 4 µM.
Turning to `CCN(CC1CCCN(C(C)(C)Cc2cccc(OC)c2)C1)C(=O)c1cc2ccccc2[nH]1` (stereo not drawn) [compound 312], the IC50 lay within 1.5 to 4 µM.
The same measure, in the same setting: the same measure for `CCN(CC1CCN(C(C)(C)CC2CCOCC2)CC1)C(=O)c1cc2ccccc2[nH]1` [Compound 365]: 1.5 to 4 µM.
On the same count and under the same terms, as for `CCN(CC1CCCN(CCc2cccc(OC)c2)C1)C(=O)c1ccccc1` (stereo not drawn) [Compound 234], the figure is above 10 µM; as for `CCN(CC1CCCN(Cc2ccc(Cl)cc2)C1)C(=O)c1cc2cc(F)c(F)cc2[nH]1` (stereo not drawn) [Compound 172], 1.5 to 4 µM.
Still for that read-out and setting: the same measure for `CCN(CC1CCCN(Cc2cc3ccccc3o2)C1)C(=O)c1cc2cc(OC)ccc2[nH]1` (stereo not drawn) [Compound 203]: 1.5 to 4 µM; for `CCN(CC1CCN(Cc2ccc(Cl)cc2)CC1)C(=O)c1cc2cc(OC)ccc2[nH]1` [compound 403]: 1.5 to 4 µM; for `CCN(CC1CCN(Cc2ccccc2Cl)CC1)C(=O)c1cc2ccccc2[nH]1` [compound 286]: 1.5 to 4 µM.
Turning to `CCN(CC1CCN(C(C)(C)Cc2cccc(F)c2OC)CC1)C(=O)c1cc2ccccc2[nH]1` [Compound 364], the IC50 is below 1.5 µM.
As to `CCN(CC1CCCN(Cc2ccc(-c3nnn[nH]3)cc2)C1)C(=O)c1cc2ccccc2[nH]1` (stereo not drawn) [Compound 225], the IC50 was above 10 µM.
For `CCN(CC1CCCN(CCc2ccccc2)C1)C(=O)c1cc2ccccc2[nH]1` (stereo not drawn) [Compound 216], the IC50 was 1.5 to 4 µM.
Still for that read-out and setting: as for `CCN(CC1CCCN(CCc2cccc(OC(F)(F)F)c2)C1)C(=O)c1cc2cc(OC(F)(F)F)ccc2[nH]1` (stereo not drawn) [Compound 179], the figure is 4 to 7 µM; as for `CCN(CC1CCCN(CCc2cccc(OC)c2)C1)C(=O)c1cc2ccccc2n1CC` (stereo not drawn) [Compound 238], 1.5 to 4 µM; as for `CCN(CC1CCCN(CCc2cccc(OC)c2)C1)C(=O)c1cc2cc(OC)ccc2[nH]1` (stereo not drawn) [Compound 244], above 10 µM.
In the case of `CCN(CC1CCCN(Cc2ccc(Cl)cc2)C1)C(=O)c1cc2cc(OC)ccc2[nH]1` (stereo not drawn) [Compound 148], the IC50 is below 1.5 µM.
On to `CCN(CC1CCCN(Cc2ccc(Cl)cc2)C1)C(=O)c1cc2c(OC)cccc2[nH]1` (stereo not drawn) [Compound 163], for which the IC50 was below 1.5 µM.
On the same count and under the same terms, the same measure for `CCN(CC1CCCN(Cc2cccc(OC(F)(F)F)c2)C1)C(=O)c1cc2cc(OC(F)(F)F)ccc2[nH]1` (stereo not drawn) [Compound 175]: above 10 µM; for `CCN(CC1CCCN(Cc2ccc(Cl)cc2)C1)C(=O)c1cc2cccc(F)c2[nH]1` (stereo not drawn) [Compound 157]: above 10 µM.
The same measure, in the same setting: the same measure for `CCN(CC1CCCN(Cc2ccc(OC)cc2)C1)C(=O)c1cc2cccc(F)c2[nH]1` (stereo not drawn) [Compound 158]: 4 to 7 µM.
On the same count and under the same terms, the same measure for `CCN(CC1CCCN(CCc2ccccc2OC)C1)C(=O)c1cc2ccccc2[nH]1` (stereo not drawn) [Compound 124]: 4 to 7 µM.
Turning to `O=C(NCC1CCNCC1)c1cc2ccccc2[nH]1` [Compound 264], the IC50 fell in the range of 1.5 to 4 µM.
The same measure, in the same setting: the same measure for `CCN(CC1CCCN(Cc2ccc(Cl)cc2)C1)C(=O)c1cc2cc(OCc3ccccc3)ccc2[nH]1` (stereo not drawn) [Compound 173]: 1.5 to 4 µM; for `CCN(CC1CCCN(Cc2ccc(OC)cc2)C1)C(=O)c1cc2cc(OC)ccc2[nH]1` (stereo not drawn) [Compound 149]: below 1.5 µM.
On the same count and under the same terms, the same measure for `CCN(CC1CCCN(CCc2cccc(OC)c2)C1)C(=O)c1ccco1` (stereo not drawn) [Compound 247]: 4 to 7 µM.
Same read-out and setting: as for `CCN(CC1CCCN(CCc2cccc(OC)c2)C1)C(=O)c1nc2ccccc2o1` (stereo not drawn) [Compound 241], the figure is above 10 µM; as for `CC(C)N(CC1CCN(Cc2ccc(Cl)cc2)CC1)C(=O)c1cc2ccccc2[nH]1` [compound 283], above 10 µM; as for `O=C(NCC1CCN(Cc2ccccc2Cl)CC1)c1cc2ccccc2[nH]1` [compound 293], above 10 µM.
As to `CCN(CC1CCCNC1)C(=O)c1cc2c(OC)cccc2[nH]1` (stereo not drawn) [compound 422], the IC50 is above 10 µM.
As to `CN(CC1CCN(Cc2cccc(F)c2)CC1)C(=O)c1cc2ccccc2[nH]1` [compound 255], the IC50 was above 10 µM.
Still for that read-out and setting: as for `CN(CC1CCN(Cc2ccccc2)CC1)C(=O)c1cc2ccccc2[nH]1` [compound 263], the figure is above 10 µM.
Same read-out and setting: as for `CCN(CC1CCN(C(C)(C)Cc2cccc(F)c2)CC1)C(=O)c1cc2ccccc2[nH]1` [Compound 330], the figure is below 1.5 µM.
On the same count and under the same terms, the same measure for `CCN(CC1CCCN(CCc2ccccc2C#N)C1)C(=O)c1cc2ccccc2[nH]1` (stereo not drawn) [Compound 147]: above 10 µM.
On to `CCN(CC1CCCN(Cc2ccc(Cl)cc2)C1)C(=O)c1cc2cc(OC)c(OC)cc2[nH]1` (stereo not drawn) [Compound 152], for which the IC50 was above 10 µM.
Still for that read-out and setting: as for `CCN(CC1CCCN(c2ccc(OC)cc2)C1)C(=O)c1cc2ccccc2[nH]1` (stereo not drawn) [Compound 227], the figure is 1.5 to 4 µM.
Same read-out and setting: the same measure for `CN(CC1CCN(Cc2ccc(F)cc2)CC1)C(=O)c1cc2ccccc2[nH]1` [compound 269]: above 10 µM; for `CCN(CC1CCCN(Cc2ccc(C(=O)OC)cc2)C1)C(=O)c1cc2ccccc2[nH]1` (stereo not drawn) [Compound 212]: above 10 µM.
Turning to `COc1cccc(CCN2CCCC(CN(C)C(=O)c3cc4ccccc4[nH]3)C2)c1` (stereo not drawn) [Compound 217], the IC50 was below 1.5 µM.
On the same count and under the same terms, as for `O=C(NCC1CCN(Cc2ccccc2)CC1)c1cc2ccccc2[nH]1` [compound 295], the figure is 4 to 7 µM; as for `O=C(NCC1CCN(Cc2ccc(F)cc2)CC1)c1cc2ccccc2[nH]1` [compound 294], above 10 µM; as for `CCN(CC1CCCN(CCc2cccc(Cl)c2)C1)C(=O)c1cc2ccccc2[nH]1` (stereo not drawn) [Compound 141], below 1.5 µM.
On the same count and under the same terms, as for `CCN(CC1CCCN(Cc2ccc(Cl)cc2)C1)C(=O)c1cc2cc(F)ccc2[nH]1` (stereo not drawn) [Compound 150], the figure is below 1.5 µM.

Staying with this assay, now noted: inhibition of TDP-43 aggregation; PC12 TDP-43^Q331K::eGFP, 1 hour pre-treatment, 15 μM sodium arsenite for 23 hours; 10-point dose response.
For `CCN(CC1CCCN(C(C)(C)Cc2cccc(OC(F)(F)F)c2)C1)C(=O)c1cc2cc(OC(F)(F)F)ccc2[nH]1` (stereo not drawn) [compound 316], the IC50 was 4 to 7 µM.
The same measure, in the same setting: the same measure for `CCN(CC1CCCN(C(C)(C)Cc2cccc(OC)c2)C1)C(=O)c1cc2ccccc2[nH]1` (stereo not drawn) [Compound 331]: 1.5 to 4 µM; for `CCN(CC1CCCN(C(C)(C)Cc2cccc(OC)c2)C1)C(=O)c1cc2cc(OC)ccc2[nH]1` (stereo not drawn) [compound 313]: above 10 µM.
On the same count and under the same terms, the same measure for `CCN(CC1CCCN(C(C)(C)Cc2cccc(OC(F)F)c2)C1)C(=O)c1cc2cc(OC(F)F)ccc2[nH]1` (stereo not drawn) [Compound 336]: below 1.5 µM.
